Reference: PMC2994747, “Molecular Characterization of c-Abl/c-Src Kinase Inhibitors Targeted against Murine Tumour Progenitor Cells that Express Stem Cell Markers” (PLoS ONE, 2010)
Read-outs that look alike come from different tables or passages of the source.

Key:
A549 [1] = assay: Cell cycle analysis by flow cytometry; assay type: cell-based, human; settings: IC50 concentration, 96 h
Method: (§1) CycleTEST™ PLUS DNA Reagent Kit (Becton Dickinson GmbH, Heidelberg, Germany) for cell cycle analysis was used, according to the instructions of the manufacturer. Briefly, the cells were harvested with trypsin, washed with PBS, and resuspended in CycleTEST Buffer. The cells were centrifuged and resuspended in solution A. After incubation for 10 min at room temperature, solution B was added and incubated. After adding solution C, the samples were incubated at 4°C protected from light. The samples were stored on ice and protected from light until analysis by FACScan flow cytometer (Becton Dickinson GmbH, Heidelberg, Germany).

HepG2 [2] = assay: Cell cycle analysis by flow cytometry; assay type: cell-based, human; settings: IC50 concentration, 96 h
Method: as §1

CaCo2 [3] = assay: Cell cycle analysis by flow cytometry; assay type: cell-based, human; settings: IC50 concentration, 96 h
Method: as §1

A2C12 [4] = assay: MTS cell viability assay; assay type: cell-based, mouse
Method: (§2) Three human and eleven murine cancer cell lines were used. The human NSCLC cell line A549 (ACC 107) and the human colorectal carcinoma cell line CaCo2 (ACC 169) were obtained from Deutsche Sammlung von Mikroorganismen und Zellkulturen (DSMZ, Braunschweig, Germany). The human hepatocellular carcinoma cell line HepG2 (HB-8065) was obtained from American Type Culture Collection (Manassas, VA, USA). The 11 murine NSCLC cell lines were established as described recently. Cells were grown in monolayer cultures in DMEM containing 10% foetal calf serum, 4 mmol/l L-glutamine and 2% Penicillin/Streptomycin at 37°C in a humidified atmosphere of 95% air and 5% CO2.
(§3) Cell culture viability was monitored by CellTiter96® AQueous One Solution Cell Proliferation Assay (Promega GmbH, Mannheim, Germany). The cells were seeded in triplicates in 96-well microtitre plates and treated with the dual kinase inhibitors or vehicle (0.2% DMSO). After 24 h or 96 h of treatment the MTS tetrazolium reagent was added to the cells and incubated for 1 h. Absorbance at 490 nm was assayed with a Victor3 Wallac 1420 Multilabel counter (PerkinElmer, Waltham, MA, USA).

GammaA3 [5] = assay: MTS cell viability assay; assay type: cell-based, mouse
Method: as §2, §3

BetaD5 [6] = assay: MTS cell viability assay; assay type: cell-based, mouse
Method: as §2, §3

GammaD12 [7] = assay: MTS cell viability assay; assay type: cell-based, mouse; settings: MTS
Method: as §2, §3

A2C12 [8] = assay: Cell cycle analysis by flow cytometry; assay type: cell-based, mouse; settings: IC50 concentration, 96 h
Method: as §1

GammaA3 [9] = assay: Cell cycle analysis by flow cytometry; assay type: cell-based, mouse; settings: IC50 concentration, 96 h
Method: as §1

BetaD5 [10] = assay: Cell cycle analysis by flow cytometry; assay type: cell-based, mouse; settings: IC50 concentration, 96 h
Method: as §1

GammaD12 [11] = assay: Cell cycle analysis by flow cytometry; assay type: cell-based, mouse; settings: IC50 concentration, 96 h
Method: as §1

A549 [12] = assay: MTS cell viability assay; assay type: cell-based, human
Method: as §2, §3

HepG2 [13] = assay: MTS cell viability assay; assay type: cell-based, human
Method: as §2, §3

CaCo2 [14] = assay: MTS cell viability assay; assay type: cell-based, human
Method: as §2, §3

[15] = 24 h, read-out: Calculated IC50 after single treatment for 24 h
[16] = 96 h, read-out: Calculated IC50 after daily treatment for 96 h

SMILES | Cells in G1 phase (A549 [1]) [%] | Cells in G2 phase (A549 [1]) [%] | Cells in S phase (A549 [1]) [%] | Cells in G1 phase (HepG2 [2]) [%] | Cells in G2 phase (HepG2 [2]) [%] | Cells in S phase (HepG2 [2]) [%] | Cells in G1 phase (CaCo2 [3]) [%] | Cells in G2 phase (CaCo2 [3]) [%] | Cells in S phase (CaCo2 [3]) [%] | IC50 (A2C12 [4]; [15]) [µM] | IC50 (A2C12 [4]; [16]) [µM] | IC50 (GammaA3 [5]; [15]) [µM] | IC50 (GammaA3 [5]; [16]) [µM] | IC50 (BetaD5 [6]; [15]) [µM] | IC50 (BetaD5 [6]; [16]) [µM] | IC50 (GammaD12 [7]; [15]) [µM] | IC50 (GammaD12 [7]; [16]) [µM] | Cells in G1 phase (A2C12 [8]) [%] | Cells in G2 phase (A2C12 [8]) [%] | Cells in S phase (A2C12 [8]) [%] | other results
CSc1nc(NCCc2ccccc2)c2cnn(CC(Cl)c3ccc(F)cc3)c2n1 (stereo not drawn) [Si66] | 68.6 | 5.3 | 26.1 | 61.1 | 9.2 | 29.8 | 61 | 5.8 | 33.3 | 23.7 ± 2.2 | 6.9 ± 0.4 | 23.7 ± 2 | 9.1 ± 0.2 | 20.7 ± 0.4 | 10.3 ± 0.3 | 14.2 ± 1.7 | 4.8 ± 0.4 | 65.3 | 11.8 | 22.9 | Cells in G1 phase (GammaA3 [9]): 58.4%; Cells in G2 phase (GammaA3 [9]): 18.5%; Cells in S phase (GammaA3 [9]): 23.1%; Cells in G1 phase (BetaD5 [10]): 52.7%; Cells in G2 phase (BetaD5 [10]): 25.6%; Cells in S phase (BetaD5 [10]): 21.7%; Cells in G1 phase (GammaD12 [11]): 32.1%; Cells in G2 phase (GammaD12 [11]): 6.7%; Cells in S phase (GammaD12 [11]): 61.5%; IC50 (A549 [12]; [15]): 21.6 ± 2.6 µM; IC50 (A549 [12]; [16]): 7.1 ± 0.1 µM; IC50 (HepG2 [13]; [15]): 44.7 ± 5.9 µM; IC50 (HepG2 [13]; [16]): 8.2 ± 0.6 µM; IC50 (CaCo2 [14]; [15]): 44.7 ± 5.9 µM; IC50 (CaCo2 [14]; [16]): 6 ± 0.1 µM
CSc1nc(Nc2cccc(F)c2)c2cnn(CC(Cl)c3ccc(F)cc3)c2n1 (stereo not drawn) [Si93] | 72.6 | 5 | 22.4 | 55 | 9.6 | 35.4 | 59.3 | 9.5 | 31.1 | 16.9 ± 0.9 | 6.5 ± 0.3 | 15.6 ± 0.6 | 7.7 ± 0.4 | 13.8 ± 2 | 10.4 ± 0.5 | 11.8 ± 0.4 | 8.8 ± 0.3 | 56.8 | 14.6 | 28.6 | Cells in G1 phase (GammaA3 [9]): 76.1%; Cells in G2 phase (GammaA3 [9]): 16.6%; Cells in S phase (GammaA3 [9]): 7.2%; Cells in G1 phase (BetaD5 [10]): 42.4%; Cells in G2 phase (BetaD5 [10]): 25.2%; Cells in S phase (BetaD5 [10]): 22.1%; Cells in G1 phase (GammaD12 [11]): 39.5%; Cells in G2 phase (GammaD12 [11]): 14.7%; Cells in S phase (GammaD12 [11]): 45.8%; IC50 (A549 [12]; [15]): 21.5 ± 4.2 µM; IC50 (A549 [12]; [16]): 6.5 ± 0.2 µM; IC50 (HepG2 [13]; [15]): 65.6 ± 2.7 µM; IC50 (HepG2 [13]; [16]): 19.1 ± 1.6 µM; IC50 (CaCo2 [14]; [15]): 65.6 ± 2.7 µM; IC50 (CaCo2 [14]; [16]): 6.4 ± 0.1 µM
Fc1ccc(C(Cl)Cn2ncc3c(Nc4cccc(Cl)c4)ncnc32)cc1 (stereo not drawn) [Si104] | 68.1 | 5.5 | 26.4 | 56.2 | 8.1 | 35.6 | 51 | 10.9 | 38.1 | 16.2 ± 1 | 6.5 ± 0.3 | 18.3 ± 0.7 | 11.4 ± 0.3 | 12.6 ± 2.6 | 12.4 ± 1 | 13.2 ± 0.9 | 9.2 ± 0.5 | 45.8 | 13.8 | 40.4 | Cells in G1 phase (GammaA3 [9]): 61.9%; Cells in G2 phase (GammaA3 [9]): 16.9%; Cells in S phase (GammaA3 [9]): 21.2%; Cells in G1 phase (BetaD5 [10]): 57.4%; Cells in G2 phase (BetaD5 [10]): 25.3%; Cells in S phase (BetaD5 [10]): 17.3%; Cells in G1 phase (GammaD12 [11]): 35.3%; Cells in G2 phase (GammaD12 [11]): 7.8%; Cells in S phase (GammaD12 [11]): 56.9%; IC50 (A549 [12]; [15]): 17.8 ± 2.6 µM; IC50 (A549 [12]; [16]): 6.8 ± 0.1 µM; IC50 (HepG2 [13]; [15]): 40.9 ± 1.7 µM; IC50 (HepG2 [13]; [16]): 10.3 ± 0.7 µM; IC50 (CaCo2 [14]; [15]): 40.8 ± 1.7 µM; IC50 (CaCo2 [14]; [16]): 5.8 ± 0.2 µM
